From patent publication US11981658B2, “Substituted aminopyridine compounds as EGFR inhibitors” (YUHAN CORPORATION, priority 2021, dated 2024) come the findings set out here.

The target of one test is EGFR L858R/C797S (Homo sapiens, UniProt P00533, C797S/L858R). Description: Biochemical EGFR kinase inhibition assay (Lance Ultra TR-FRET), double mutant L858R/C797S. In a few lines:
(§1)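 Step 1: compound in kinase buffer, 0.003–10 μM. Step 2: kinase reaction 1 h at room temperature. Step 4: TR-FRET read at 615/665 nm; IC50 calculated.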

In a further test the target is EGFR Del19/T790M/C797S (Homo sapiens, UniProt P00533, C797S/DEL746-750/T790M). The experiment in a line: Biochemical EGFR kinase inhibition assay (Lance Ultra TR-FRET), triple mutant del19/T790M/C797S. The procedure, abridged:
as §1

In the next test the target is EGFR Del19/C797S (Homo sapiens, UniProt P00533, C797S/DEL746-750). Description: Biochemical EGFR kinase inhibition assay (Lance Ultra TR-FRET), double mutant del19/C797S. The procedure, abridged:
as §1

The next test concerns the target EGFR L858R/T790M/C797S (Homo sapiens, UniProt P00533, C797S/L858R/T790M). Description: Biochemical EGFR kinase inhibition assay (Lance Ultra TR-FRET), triple mutant L858R/T790M/C797S. In a few lines: as §1
Another test addresses EGFR wildtype (WT) (Homo sapiens, UniProt P00533). The experiment in a line: Biochemical EGFR kinase inhibition assay (Lance Ultra TR-FRET), wildtype. In a few lines: as §1
[1] abbreviates: IC50 L858R/C797S (nM), 100 μM ATP.
The mark [2] stands for this setting: Km ATP, read-out: IC50 L858R/C797S (nM), Km ATP.
[3] abbreviates: IC50 Del19/T790M/C797S (nM), 100 μM ATP.
Setting [4] is: Km ATP, read-out: IC50 Del19/T790M/C797S (nM), Km ATP.
The mark [5] stands for this setting: IC50 Del19/C797S (nM), 100 μM ATP.
Where [6] appears, read: Km ATP, read-out: IC50 Del19/C797S (nM), Km ATP.
[7] abbreviates: IC50 L858R/T790M/C797S (nM), 100 μM ATP.
[8] abbreviates: Km ATP, read-out: IC50 L858R/T790M/C797S (nM), Km ATP.
Setting [9] is: Km ATP, read-out: IC50 WT (nM), Km ATP.
The mark [10] stands for this setting: ATP at Km, read-out: IC50 L858R/C797S (nM), Km ATP.
Setting [11] is: ATP at Km, read-out: IC50 Del19/T790M/C797S (nM), Km ATP.
Where [12] appears, read: ATP at Km, read-out: IC50 Del19/C797S (nM), Km ATP.
Setting [13] is: ATP at Km, read-out: IC50 L858R/T790M/C797S (nM), Km ATP.
[14] abbreviates: ATP at Km, read-out: IC50 WT (nM), Km ATP.
Setting [15] is: Km ATP, read-out: IC50 L858R/C797S (nM) Km ATP.
[16] abbreviates: Km ATP, read-out: IC50 Del19/T790M/C797S (nM) Km ATP.
The mark [17] stands for this setting: Km ATP, read-out: IC50 Del19/C797S (nM) Km ATP.
[18] abbreviates: Km ATP, read-out: IC50 L858R/T790M/C797S (nM) Km ATP.
Setting [19] is: Km ATP, read-out: IC50 WT (nM) Km ATP.

Read-outs that look alike come from different tables or passages of the source. Bounds are passed on as bounds.

Sequence of EGFR L858R/T790M/C797S (P00533 25-1210 T790M/C797S/L858R): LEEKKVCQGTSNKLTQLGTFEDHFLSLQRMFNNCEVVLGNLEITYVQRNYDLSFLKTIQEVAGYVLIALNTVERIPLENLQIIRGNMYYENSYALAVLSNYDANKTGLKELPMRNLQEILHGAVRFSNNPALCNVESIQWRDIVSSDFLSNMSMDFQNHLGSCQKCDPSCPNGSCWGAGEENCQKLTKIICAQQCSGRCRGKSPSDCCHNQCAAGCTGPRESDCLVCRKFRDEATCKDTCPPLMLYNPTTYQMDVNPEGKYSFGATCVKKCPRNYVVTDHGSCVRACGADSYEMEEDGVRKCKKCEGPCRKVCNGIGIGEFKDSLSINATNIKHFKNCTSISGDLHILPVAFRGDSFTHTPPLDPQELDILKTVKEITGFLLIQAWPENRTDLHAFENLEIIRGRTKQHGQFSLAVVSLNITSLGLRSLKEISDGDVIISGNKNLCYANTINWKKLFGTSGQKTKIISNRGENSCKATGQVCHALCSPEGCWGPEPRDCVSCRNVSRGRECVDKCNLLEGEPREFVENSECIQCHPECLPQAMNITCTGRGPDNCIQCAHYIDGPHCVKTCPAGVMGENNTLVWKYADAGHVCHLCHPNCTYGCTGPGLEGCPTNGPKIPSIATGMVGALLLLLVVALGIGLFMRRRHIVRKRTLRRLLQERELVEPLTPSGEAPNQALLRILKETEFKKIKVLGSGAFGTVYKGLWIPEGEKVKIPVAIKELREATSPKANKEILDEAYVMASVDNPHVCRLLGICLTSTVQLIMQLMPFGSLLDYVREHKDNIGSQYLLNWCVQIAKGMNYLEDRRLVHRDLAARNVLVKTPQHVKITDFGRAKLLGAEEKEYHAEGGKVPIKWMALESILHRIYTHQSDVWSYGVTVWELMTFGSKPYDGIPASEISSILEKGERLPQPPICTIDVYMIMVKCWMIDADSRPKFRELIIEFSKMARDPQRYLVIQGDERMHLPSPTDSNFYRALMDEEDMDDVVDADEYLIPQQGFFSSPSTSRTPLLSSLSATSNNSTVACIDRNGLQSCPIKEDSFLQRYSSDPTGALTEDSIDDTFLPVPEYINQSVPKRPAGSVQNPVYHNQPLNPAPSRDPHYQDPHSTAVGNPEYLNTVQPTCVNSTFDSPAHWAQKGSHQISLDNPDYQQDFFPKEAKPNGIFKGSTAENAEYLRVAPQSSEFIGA
Sequence of EGFR wildtype (WT) (P00533 25-1210): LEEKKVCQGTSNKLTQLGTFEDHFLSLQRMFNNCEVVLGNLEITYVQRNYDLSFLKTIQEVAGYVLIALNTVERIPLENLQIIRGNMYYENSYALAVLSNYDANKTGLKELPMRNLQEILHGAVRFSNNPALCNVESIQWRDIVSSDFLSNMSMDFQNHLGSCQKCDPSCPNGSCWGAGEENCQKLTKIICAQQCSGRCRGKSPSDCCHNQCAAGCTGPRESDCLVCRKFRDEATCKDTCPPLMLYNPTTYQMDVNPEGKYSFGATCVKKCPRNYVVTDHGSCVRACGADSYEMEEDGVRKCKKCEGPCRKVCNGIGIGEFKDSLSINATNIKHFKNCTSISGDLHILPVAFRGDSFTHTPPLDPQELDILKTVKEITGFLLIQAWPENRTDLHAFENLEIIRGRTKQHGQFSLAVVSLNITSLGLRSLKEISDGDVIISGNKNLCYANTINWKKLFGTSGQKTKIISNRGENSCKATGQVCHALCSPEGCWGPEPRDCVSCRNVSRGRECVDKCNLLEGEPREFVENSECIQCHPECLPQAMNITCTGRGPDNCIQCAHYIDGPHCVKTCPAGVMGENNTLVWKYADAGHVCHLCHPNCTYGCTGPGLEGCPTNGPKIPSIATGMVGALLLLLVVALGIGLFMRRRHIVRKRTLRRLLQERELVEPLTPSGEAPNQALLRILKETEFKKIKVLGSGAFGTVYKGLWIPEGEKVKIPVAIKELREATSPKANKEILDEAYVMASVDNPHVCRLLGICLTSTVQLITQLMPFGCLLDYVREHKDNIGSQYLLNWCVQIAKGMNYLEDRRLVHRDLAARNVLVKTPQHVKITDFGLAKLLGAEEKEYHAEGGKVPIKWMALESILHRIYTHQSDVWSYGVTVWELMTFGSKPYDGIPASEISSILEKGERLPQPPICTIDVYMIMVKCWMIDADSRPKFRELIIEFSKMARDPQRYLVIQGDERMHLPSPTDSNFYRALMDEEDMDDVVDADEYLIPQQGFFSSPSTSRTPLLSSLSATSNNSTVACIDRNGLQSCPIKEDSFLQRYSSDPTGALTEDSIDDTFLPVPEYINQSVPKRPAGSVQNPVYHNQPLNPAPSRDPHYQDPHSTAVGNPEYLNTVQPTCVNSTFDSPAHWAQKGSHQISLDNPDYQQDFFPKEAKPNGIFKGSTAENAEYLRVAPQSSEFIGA
Sequence of EGFR Del19/T790M/C797S (P00533 with tags, fused parts or gaps DEL746-750/T790M/C797S): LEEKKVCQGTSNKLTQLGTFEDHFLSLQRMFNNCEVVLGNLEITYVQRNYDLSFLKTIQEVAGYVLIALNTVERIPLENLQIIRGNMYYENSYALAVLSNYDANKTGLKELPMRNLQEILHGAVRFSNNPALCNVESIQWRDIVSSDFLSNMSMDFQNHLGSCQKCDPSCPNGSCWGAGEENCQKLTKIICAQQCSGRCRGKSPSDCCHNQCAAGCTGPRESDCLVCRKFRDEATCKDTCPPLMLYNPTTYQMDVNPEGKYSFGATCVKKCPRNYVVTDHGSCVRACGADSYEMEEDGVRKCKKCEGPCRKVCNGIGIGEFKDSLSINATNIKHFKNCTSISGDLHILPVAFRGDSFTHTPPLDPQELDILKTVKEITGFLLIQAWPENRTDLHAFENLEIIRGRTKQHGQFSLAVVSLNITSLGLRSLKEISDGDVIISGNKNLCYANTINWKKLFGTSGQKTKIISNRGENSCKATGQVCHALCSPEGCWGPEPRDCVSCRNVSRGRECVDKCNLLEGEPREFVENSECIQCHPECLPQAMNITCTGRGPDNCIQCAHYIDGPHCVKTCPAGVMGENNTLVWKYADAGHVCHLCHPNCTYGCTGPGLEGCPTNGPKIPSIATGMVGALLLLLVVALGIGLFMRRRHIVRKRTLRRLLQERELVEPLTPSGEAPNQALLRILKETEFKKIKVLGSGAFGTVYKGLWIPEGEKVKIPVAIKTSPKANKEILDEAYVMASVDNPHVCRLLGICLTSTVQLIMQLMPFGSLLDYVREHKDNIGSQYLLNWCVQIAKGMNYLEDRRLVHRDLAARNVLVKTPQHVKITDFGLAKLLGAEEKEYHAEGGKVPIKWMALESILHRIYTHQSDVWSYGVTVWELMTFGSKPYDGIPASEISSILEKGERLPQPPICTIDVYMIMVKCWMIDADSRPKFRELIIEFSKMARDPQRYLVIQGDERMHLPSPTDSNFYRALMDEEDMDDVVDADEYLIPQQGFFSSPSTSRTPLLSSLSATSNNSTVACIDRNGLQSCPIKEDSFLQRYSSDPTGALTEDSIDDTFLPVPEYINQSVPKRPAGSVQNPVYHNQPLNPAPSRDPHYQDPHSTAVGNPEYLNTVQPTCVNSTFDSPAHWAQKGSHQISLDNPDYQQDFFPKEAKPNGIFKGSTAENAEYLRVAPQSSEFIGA
Sequence of EGFR Del19/C797S (P00533 with tags, fused parts or gaps DEL746-750/C797S): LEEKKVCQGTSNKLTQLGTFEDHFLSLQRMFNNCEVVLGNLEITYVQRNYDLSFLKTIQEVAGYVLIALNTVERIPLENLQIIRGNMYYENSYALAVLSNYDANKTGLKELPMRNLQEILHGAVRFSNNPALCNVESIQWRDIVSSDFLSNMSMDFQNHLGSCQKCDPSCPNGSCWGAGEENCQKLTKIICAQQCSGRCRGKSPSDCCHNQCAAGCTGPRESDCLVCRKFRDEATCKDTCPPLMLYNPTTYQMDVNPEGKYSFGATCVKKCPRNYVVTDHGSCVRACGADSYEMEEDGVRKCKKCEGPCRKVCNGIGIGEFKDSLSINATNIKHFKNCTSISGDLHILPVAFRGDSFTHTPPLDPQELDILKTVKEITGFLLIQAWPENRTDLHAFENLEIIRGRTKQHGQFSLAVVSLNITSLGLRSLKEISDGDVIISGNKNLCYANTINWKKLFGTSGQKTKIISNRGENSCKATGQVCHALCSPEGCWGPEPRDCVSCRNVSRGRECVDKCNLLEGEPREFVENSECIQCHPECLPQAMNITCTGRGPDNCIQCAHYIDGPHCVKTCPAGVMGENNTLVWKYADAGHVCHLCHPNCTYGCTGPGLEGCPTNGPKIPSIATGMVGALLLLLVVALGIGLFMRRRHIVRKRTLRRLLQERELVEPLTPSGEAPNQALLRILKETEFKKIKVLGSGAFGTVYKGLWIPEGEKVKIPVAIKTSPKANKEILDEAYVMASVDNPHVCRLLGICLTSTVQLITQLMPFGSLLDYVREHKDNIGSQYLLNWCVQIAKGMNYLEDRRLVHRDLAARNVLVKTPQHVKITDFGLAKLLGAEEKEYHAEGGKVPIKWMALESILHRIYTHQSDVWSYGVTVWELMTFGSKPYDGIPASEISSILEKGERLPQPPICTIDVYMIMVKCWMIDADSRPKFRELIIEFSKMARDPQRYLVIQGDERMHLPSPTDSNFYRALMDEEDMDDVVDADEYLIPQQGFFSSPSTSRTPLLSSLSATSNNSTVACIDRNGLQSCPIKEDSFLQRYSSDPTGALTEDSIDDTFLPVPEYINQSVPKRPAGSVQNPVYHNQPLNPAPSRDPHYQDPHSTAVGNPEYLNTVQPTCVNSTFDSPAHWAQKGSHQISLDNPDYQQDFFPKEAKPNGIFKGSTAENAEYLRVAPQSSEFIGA

Take `O=S(=O)(C1CC1)n1cc(-c2nccc(Nc3cc(N4CCC[C@@H](O)C4)c(C#Cc4cnn(CCF)c4)cn3)n2)cn1` [Example 440, (R)-1-(2-((2-(1-(Cyclopropylsulfonyl)-1H-pyrazol-4-yl)pyrimidin-4-yl)amino)-5-((1-(2-fluoroethyl)-1H-pyrazol-4-yl)ethynyl)pyridin-4-yl)piperidin-3-ol]: the IC50 was found to be 61.5 nM against EGFR L858R/C797S (setting [1]); 10.3 nM at EGFR L858R/C797S (setting [2]); 0.5 nM against EGFR Del19/T790M/C797S (setting [3]); 0.5 nM at EGFR Del19/T790M/C797S (setting [4]); 9.7 nM against EGFR Del19/C797S (setting [5]); 7.6 nM on EGFR Del19/C797S (setting [6]). Moreover, the IC50 against EGFR L858R/T790M/C797S (setting [7]) was 1.3 nM; on EGFR L858R/T790M/C797S (setting [8]), 0.5 nM; against EGFR wildtype (WT) (IC50 WT (nM), 100 μM ATP), more than 10000 nM; on EGFR wildtype (WT) (setting [9]), 48.4 nM.
Regarding `O=C(N1CCC(C#Cc2cnc(Nc3ccnc(-c4cnn(S(=O)(=O)C5CC5)c4)n3)cc2NC2CCC(O)CC2)C1)C(F)(F)F` (stereo not drawn) [Example 414, 1-(3-((6-((2-(1-(Cyclopropylsulfonyl)-1H-pyrazol-4-yl)pyrimidin-4-yl)amino)-4-(((1 s, 4s)-4-hydroxycyclohexyl)amino)pyridin-3-yl)ethynyl)pyrrolidin-1-yl)-2,2,2-trifluoroethan-1-one], the IC50 against EGFR L858R/C797S (setting [1]) was 24.1 nM; at EGFR Del19/T790M/C797S (setting [3]), 0.4 nM; against EGFR Del19/C797S (setting [5]) it was 1.8 nM; against EGFR L858R/T790M/C797S (setting [7]) it was 3.9 nM; on EGFR wildtype (WT) (IC50 WT (nM), 100 μM ATP), 5190 nM.
In the case of `CC(C)Nc1cc(Nc2ccnc(-c3cnn(S(=O)(=O)C4CC4)c3)n2)ncc1C#CCN1CCCC1` [Example 203, N^2-(2-(1-(Cyclopropylsulfonyl)-1H-pyrazol-4-yl)pyrimidin-4-yl)-N^4-isopropyl-5-(3-(pyrrolidin-1-yl)prop-1-yn-1-yl)pyridine-2,4-diamine], the IC50 on EGFR L858R/C797S (setting [10]) amounted to 110 nM; on EGFR Del19/T790M/C797S (setting [11]) it was 2.2 nM; on EGFR Del19/C797S (setting [12]), 68.1 nM; on EGFR L858R/T790M/C797S (setting [13]) it was 1.4 nM; on EGFR wildtype (WT) (setting [14]) it was 437 nM.
With `CC1(CO)CCN(c2cc(Nc3ccnc(-c4cnn(S(=O)(=O)C5CC5)c4)n3)ncc2C#CCCO)CC1` [Example 274, 4-(6-((2-(1-(Cyclopropylsulfonyl)-1H-pyrazol-4-yl)pyrimidin-4-yl)amino)-4-(4-(hydroxymethyl)-4-methylpiperidin-1-yl)pyridin-3-yl)but-3-yn-1-ol], the IC50 at EGFR L858R/C797S (setting [10]) came out at 1 nM; at EGFR L858R/C797S (setting [1]), 10.8 nM; on EGFR Del19/T790M/C797S (setting [11]), 0.1 nM; at EGFR Del19/T790M/C797S (setting [3]), 0.2 nM; at EGFR Del19/C797S (setting [12]) it was 0.4 nM; on EGFR Del19/C797S (setting [5]), 0.6 nM. The IC50 on EGFR L858R/T790M/C797S (setting [13]) was determined as 0.1 nM; against EGFR L858R/T790M/C797S (setting [7]), 0.2 nM; on EGFR wildtype (WT) (setting [14]), 4.4 nM; at EGFR wildtype (WT) (IC50 WT (nM), 100 μM ATP), 1890 nM.
Turning to `CN(C)CC1(O)CCN(c2cc(Nc3ccnc(-c4cnn(S(=O)(=O)C5CC5)c4)n3)ncc2C#Cc2cnn(C(F)(F)F)c2)CC1` [Example 317, 1-(2-((2-(1-(Cyclopropylsulfonyl)-1H-pyrazol-4-yl)pyrimidin-4-yl)amino)-5-((1-(trifluoromethyl)-1H-pyrazol-4-yl)ethynyl)pyridin-4-yl)-4-((dimethylamino)methyl)piperidin-4-ol], the IC50 against EGFR L858R/C797S (setting [1]) was 334 nM; on EGFR Del19/T790M/C797S (setting [3]) it was 16.2 nM; at EGFR Del19/C797S (setting [5]), 245 nM; against EGFR L858R/T790M/C797S (setting [7]), 35.1 nM; on EGFR wildtype (WT) (IC50 WT (nM), 100 μM ATP) it was more than 10000 nM.
For the compound `Cn1cc(C#Cc2cnc(Nc3ccnc(-c4cnn(S(=O)(=O)C5CC5)c4)n3)cc2NC2CCCC(F)C2)cn1` (stereo not drawn) [Example 74, N^2-(2-(1-(Cyclopropylsulfonyl)-1H-pyrazol-4-yl)pyrimidin-4-yl)-N^4-(3-fluorocyclohexyl)-5-((1-methyl-1H-pyrazol-4-yl)ethynyl)pyridine-2,4-diamine], the IC50 was 181 nM on EGFR L858R/C797S (setting [1]); 4.7 nM against EGFR Del19/T790M/C797S (setting [3]); 123 nM at EGFR Del19/C797S (setting [5]); 13.6 nM against EGFR L858R/T790M/C797S (setting [7]); more than 10000 nM at EGFR wildtype (WT) (IC50 WT (nM), 100 μM ATP).
Consider `Cn1cc(C#Cc2cnc(Nc3ccnc(-c4cnn(S(=O)(=O)C5CC5)c4)n3)cc2N2CCCC(CO)CC2)cn1` (stereo not drawn) [Example 78, (1-(2-((2-(1-(Cyclopropylsulfonyl)-1H-pyrazol-4-yl)pyrimidin-4-yl)amino)-5-((1-methyl-1H-pyrazol-4-yl)ethynyl)pyridin-4-yl)azepan-4-yl)methanol], for which the IC50 on EGFR L858R/C797S (setting [1]) was determined as 563 nM; at EGFR L858R/C797S (setting [15]), 22.1 nM; at EGFR Del19/T790M/C797S (setting [3]), 1.3 nM; at EGFR Del19/T790M/C797S (setting [16]) it was 1.6 nM; against EGFR Del19/C797S (setting [5]), 12.4 nM; at EGFR Del19/C797S (setting [17]), 10.4 nM. Besides, the IC50 on EGFR L858R/T790M/C797S (setting [7]) is 5.9 nM; at EGFR L858R/T790M/C797S (setting [18]) it was 0.7 nM; at EGFR wildtype (WT) (IC50 WT (nM), 100 μM ATP), more than 10000 nM; on EGFR wildtype (WT) (setting [19]), 163 nM.
Turning to `CN1CCN(Cc2ccc(C#Cc3cnc(Nc4ccnc(-c5cnn(S(=O)(=O)C6CC6)c5)n4)cc3NC[C@H]3CC[C@](C)(O)CC3)cc2)CC1` [Example 363, (1r,4r)-4-(((2-((2-(1-(Cyclopropylsulfonyl)-1H-pyrazol-4-yl)pyrimidin-4-yl)amino)-5-((4-((4-methylpiperazin-1-yl)methyl)phenyl)ethynyl)pyridin-4-yl)amino)methyl)-1-methylcyclohexan-1-ol], the IC50 was 94.9 nM against EGFR L858R/C797S (setting [1]); 1.2 nM against EGFR Del19/T790M/C797S (setting [3]); 8.2 nM at EGFR Del19/C797S (setting [5]); 2.4 nM against EGFR L858R/T790M/C797S (setting [7]); more than 10000 nM at EGFR wildtype (WT) (IC50 WT (nM), 100 μM ATP).
Turning to `O=S(=O)(C1CC1)n1cc(-c2nccc(Nc3cc(N4CCCC(CO)C4)c(C#Cc4cnn(C5CCOCC5)c4)cn3)n2)cn1` (stereo not drawn) [Example 100, (1-(2-((2-(1-(Cyclopropylsulfonyl)-1H-pyrazol-4-yl)pyrimidin-4-yl)amino)-5-((1-(tetrahydro-2H-pyran-4-yl)-1H-pyrazol-4-yl)ethynyl)pyridin-4-yl)piperidin-3-yl)methanol], the IC50 against EGFR L858R/C797S (setting [1]) worked out at 73.9 nM; at EGFR L858R/C797S (setting [15]) it was 7.1 nM; at EGFR Del19/T790M/C797S (setting [3]) it was 1.6 nM; at EGFR Del19/T790M/C797S (setting [16]), 1.7 nM; at EGFR Del19/C797S (setting [5]) it was 12.9 nM; at EGFR Del19/C797S (setting [17]), 10.7 nM. The IC50 against EGFR L858R/T790M/C797S (setting [7]) is 5.6 nM; at EGFR L858R/T790M/C797S (setting [18]), 1.3 nM; against EGFR wildtype (WT) (IC50 WT (nM), 100 μM ATP) it was more than 10000 nM; at EGFR wildtype (WT) (setting [19]) it was 62 nM.
Consider `O=S(=O)(C1CC1)n1cc(-c2nccc(Nc3cc(NC4CCC(O)CC4)c(C#CC4(F)CCOC4)cn3)n2)cn1` (stereo not drawn) [Example 436, (1s,4s)-4-((2-((2-(1-(Cyclopropylsulfonyl)-1H-pyrazol-4-yl)pyrimidin-4-yl)amino)-5-((3-fluorotetrahydrofuran-3-yl)ethynyl)pyridin-4-yl)amino)cyclohexan-1-ol], for which the IC50 was found to be 111 nM at EGFR L858R/C797S (setting [1]); 2.5 nM at EGFR L858R/C797S (setting [2]); 0.2 nM against EGFR Del19/T790M/C797S (setting [3]); 0.1 nM at EGFR Del19/T790M/C797S (setting [4]); 3.1 nM against EGFR Del19/C797S (setting [5]); 1.7 nM at EGFR Del19/C797S (setting [6]). For the same compound, the IC50 was 0.3 nM against EGFR L858R/T790M/C797S (setting [7]); 0.1 nM on EGFR L858R/T790M/C797S (setting [8]); more than 10000 nM against EGFR wildtype (WT) (IC50 WT (nM), 100 μM ATP); 12.5 nM at EGFR wildtype (WT) (setting [9]).
`CC1(CO)CCN(c2cc(Nc3ccnc(-c4ccc(F)nc4)n3)ncc2C#Cc2cnn(C(F)(F)F)c2)CC1` [Example 269, (1-(2-((2-(6-Fluoropyridin-3-yl)pyrimidin-4-yl)amino)-5-((1-(trifluoromethyl)-1H-pyrazol-4-yl)ethynyl)pyridin-4-yl)-4-methylpiperidin-4-yl)methanol]: the IC50 at EGFR L858R/C797S (setting [1]) is 1350 nM; against EGFR Del19/T790M/C797S (setting [3]), 129 nM; at EGFR Del19/C797S (setting [5]), 1950 nM; at EGFR L858R/T790M/C797S (setting [7]) it was 160 nM; on EGFR wildtype (WT) (setting [14]), more than 10000 nM; at EGFR wildtype (WT) (IC50 WT (nM), 100 μM ATP), more than 10000 nM.
